The record followed here is patent publication US20260242359A1, “IRHOM2 INHIBITORS AND USES THEREOF” (NEW YORK SOCIETY FOR THE RELIEF OF THE RUPTURED AND …, priority 2023, published 2026).

Assay [1] deals with PMA-induced release of endogenous HB-EGF from human peripheral blood mononuclear cells (PBMCs). In words: Example 16: ELISA-based HB-EGF release assay, PMA-induced, PBMCs from healthy donor. It is filed as cell-based. The note with it: 10 μM final concentration, PMA 25 ng/ml, delta Buffer stimulated vs unstimulated = 100% inhibition; for inhibition at 10 µM: Homo sapiens, PBMC. The protocol:
In the following study, ELISA-based HB-EGF release assays were performed to analyze the inhibitory effects of Compounds 1, 2, 3, 4, 5, and 7 on PMA-induced release of endogenous HB-EGF from primary human material obtained from healthy donor using peripheral blood mononuclear cells (PBMCs). The ELISA-based HB-EGF release assay that was used in this example is described below.
(§1) In brief, on day 1, Nunc black MaxiSorp® 96-well plates (Thermo Fisher Scientific, USA) were coated overnight with 100 μl per well of mouse anti-human HB-EGF capture antibody (provided as part of the DuoSet ELISA kit) at 2 μg/ml TBS at 4° C.
(§2) 80,000 PBMCs from healthy donor (SciRhom GmbH, Germany) in 80 μl of normal growth medium were seeded in each well of Greiner CELLSTAR V-bottom 96-well plates (Greiner Bio-One, Germany) and pre-incubated with 20 d per well of standard growth medium supplemented with Batimastat (BB94, Abcam, UK) at 50 μM as positive control (for a final concentration of 10 μM in the resulting 100 μl sample volume), compounds of the invention at 50 μM (for a final concentration of 10 μM in the resulting 100 μl sample volume) and in case of Buffer stimulated and unstimulated controls with DMSO (Carl Roth, Germany) at 50 μM (for a final concentration of 10 μM in the resulting 100 μl sample volume) at 37° C., 5% CO2 for 30 minutes. Subsequently, cells (except those for unstimulated controls) were stimulated with 20 μl per well of PMA (Sigma-Aldrich, USA) at 150 ng/ml in growth medium for a final concentration of 25 ng/ml at 37° C., 5% CO2 for 22 hours.
(§3) On day 2, the capture antibody solution was removed and MaxiSorp® plates were blocked with 300 μl per well of TBS, 1% BSA at room temperature for 1-2 hours. Meanwhile, the 96-well plates were centrifuged to pellet cells. In parallel, blocking buffer was removed from the MaxiSorp® plates and plates were washed 4 times with 350 μl TBS-T (Carl Roth, Germany) per well on a 96-head plate washer (Tecan Group, Switzerland). To avoid drying-up, 30 μl TBS were added to each well of the MaxiSorp® plates immediately, followed by the transfer of 70 μl cell-free supernatant per sample. Additionally, 100 μl recombinant human HB-EGF protein (provided as part of the DuoSet ELISA kit) diluted in TBS at defined concentrations were added to the plate as standard references. Plates were incubated at room temperature for 2 hours. After 4 times washing with 350 μl TBS-T (Carl Roth, Germany) per well on a 96-head plate washer (Tecan Group, Switzerland) and careful removal of all buffer traces after the fourth cycle, 100 μl biotinylated goat anti-human HB-EGF detection antibody (provided as part of the DuoSet ELISA kit) at 50 ng/ml TBS were added per well and, protected from direct light, plates were incubated at room temperature for 2 hours.
(§4) After 4 times washing with 350 μl TBS-T (Carl Roth, Germany) per well on a 96-head plate washer (Tecan Group, Switzerland) and careful removal of all buffer traces after the fourth cycle, 100 μl streptavidin-AP (R&D Systems, USA) diluted 1:10,000 in TBS were added to each well and, again protected from direct light, plates were incubated at room temperature for 30 minutes. Following another round of 4 times washing with 350 μl TBS-T (Carl Roth, Germany) per well on a 96-head plate washer (Tecan Group, Switzerland) and careful removal of all buffer traces after the fourth cycle, 100 μl AttoPhos substrate solution (Promega, USA) per well was added for incubation in the dark at room temperature for 1 hour. Using an infinite M1000 (Tecan Group, Switzerland) microplate reader, the fluorescence of each well was collected at an excitation wavelength of 435 nm and an emission wavelength of 555 nm.
(§5) The delta between Buffer stimulated and Buffer unstimulated was defined 100% inhibition.
For orientation: In an ELISA, binding on a coated surface is turned into a signal by an enzyme label.

Assay [2] relates to PMA-induced release of endogenous HB-EGF from human THP-1 macrophage cells. In words: Example 15: ELISA-based HB-EGF release assay, PMA-induced, THP-1 macrophage cells. It is filed as cell-based. Conditions: read-out: inhibition of PMA-induced release of HB-EGF from THP-1 cells. As for the experimental part: In the following study, ELISA-based HB-EGF release assays were performed to analyze the inhibitory effects of Compounds 1, 2, 3, 4, 5, and 7 on PMA-induced release of endogenous HB-EGF from human THP-1 macrophage cells. The ELISA-based HB-EGF release assay that was used in this example is described below.
as §1
as §2, with “40,000 THP-1 cells (American Type Culture Collection, USA) cells in” for “80,000 PBMCs from healthy donor (SciRhom GmbH, Germany) in”, “20 μl” for “20 d”, “for 23” for “for 22”
as §3, §4, §5

The mark [3] stands for this setting: THP-1, 10 μM final concentration, PMA 25 ng/ml, 23 hours, delta Buffer stimulated vs unstimulated = 100% inhibition.

Structures are written as SMILES. Where two headings read alike, the source gives them in different places.

In general, inhibition refers to the relative decrease from the control value, in per cent. On to `CNC(=O)[C@H](Cc1ccccc1)NC(=O)[C@H](CC(C)C)[C@H](CSc1cccs1)C(=O)NO` [Batimastat, reference compound], for which the “inhibition of PMA-induced release of HB-EGF from PBMCs from healthy donor” value in assay [1] (22 hours) worked out at 107.6%. The figures for the inhibition at 10 µM in assay [1] (22 h) and in assay [2] (setting [3]) were 98.5% and 99.2%, respectively.

For `CCC(=O)NCCc1c(/C=C2/C(=O)NC(=O)N(c3ccc(C)cc3C)C2=O)[nH]c2ccccc12` [Compound 1], the inhibition at 10 µM in assay [1] (22 hours) stood at 101%; in assay [2] (THP-1, 23 h) it was 95.4%.

On to `CCOC(=O)c1ccc(Nc2nc3nonc3n3nnnc23)cc1` [Compound 2], for which the inhibition at 10 µM was 100% in assay [1] (22 h) and 77.5% in assay [2] (setting [3]).

Turning to `O=C(c1c(Cl)cccc1Cl)N1CCC(Cc2ccc(F)cc2)CC1` [Compound 3], the values for the inhibition at 10 µM in assay [1] (22 h) and in assay [2] (setting [3]) were 22.4% and 29.6%, respectively.

On to `Cc1c(C(=O)NCc2cccs2)sc(=O)n1Cc1ccccc1` [Compound 4], for which the figures for the inhibition at 10 µM in assay [1] (22 h) and in assay [2] (setting [3]) were 38.7% and 62.5%, respectively.

Regarding `Cc1c(C(=O)NCc2cccs2)sc(=O)n1Cc1ccccc1F` [Compound 5], the inhibition at 10 µM in assay [1] (22 h) was determined as 34%; in assay [2] (setting [3]) it was 55.1%.

Turning to `Cc1c(C(=O)NCc2ccco2)sc(=O)n1Cc1ccccc1F` [Compound 7], the inhibition at 10 µM in assay [1] (22 h) turned out to be 107%; in assay [2] (setting [3]) it was 95.1%.
